# Experimental data reported in patent EP0995441A2, “Combination of compounds for treating erectile dysfunctions” (priority 1998, dated 2000).
# Values joined by “and” are separate entries in the source; they are usually repeats but may differ in a detail not shown here. Equal entries are not always repeated.
# Assays:
# [1] = system: Patienten mit Sildenafilresistenz; experiment: Clinical study: erection response after oral drug combination in patients not responding to sildenafil alone; assay type: in vivo
# Description: Überraschenderweise erwies sich in klinischen Studien, daß Patienten mit erektiler Impotenz (ED) nach Therapieversagen unter der Behandlung mit Sildenafil allein (ED-SN negativ nach Sildenafil-Therapie in einer Menge von 100 mg Sildenafil) mit der erfindungsgemäßen Medikamentenkombination erfolgreich therapierbar waren.
# Tabelle 1 zeigt die Wirkung einer Medikamentenkombination, bestehend aus Sildenafil und Midodrin der chemischen Strukturformel: [drawing 3] wobei die Sildenafil-Mengen von 10 bis 100 mg und die Midodrin-Mengen von 5 bis 25 mg variiert wurden.
# Bei 10 Patienten mit ED-SN im Alter zwischen 45 bis 65 Jahren ohne Nitropräparate und koronare Herzkrankheiten lag beispielsweise die Ansprechrate der Medikamentenkombination, bestehend aus 50 mg Sildenafil und 25 mg Midodrin bei 7 von 10 Patienten, wenn die Medikamentenkombination in Form von Zwei-Kompartment-Dragees gegeben wurde.
# Bei Gabe der Medikamentenkombination in einer üblichen Retard-Form gelang es, die Ansprechrate auf 8 von 10 Patienten zu erhöhen. Tabelle 1
# [2] = system: Sphincter internus und Sphincter externus; experiment: Endoscopic observation and fibre-optic pressure measurement in the prostatic urethra after injection into the corpora cavernosa; assay type: in vivo, Patienten mit Priapismus; conditions: Vergleichsgruppe with clinically sufficient erection after 100 mg Sildenafil
# Source text: Diese pharmakologischen Veränderungen sind ein indirekter Hinweis auf die alterierte Gefäßabflußsituation im Funktionsbereich der angrenzenden Organe an die Corpora cavernosa.
# [3] = Sildenafil Monodosis 100 mg, control of the Retardform group
structure (smiles),measurement,setting,value
CCCc1nn(C)c2c(=O)[nH]c(-c3cc(S(=O)(=O)N4CCN(C)CC4)ccc3OCC)nc12 [Sildenafil],"Kontrolle, 1. REAKTION (INITIALPHASE): patients reacting out of 10",[1]; Sildenafil Monodosis 10 mg,0/10
same,"Kontrolle, 50% REAKTION: patients reacting out of 10",[1]; Sildenafil Monodosis 10 mg,0/10
same,"Kontrolle, MAXIMALE EREKTION: patients reacting out of 10",[1]; Sildenafil Monodosis 10 mg,0/10
same,"Kontrolle, 1. REAKTION (INITIALPHASE): patients reacting out of 10",[1]; Sildenafil Monodosis 50 mg,0/10 and 1/10
same,"Kontrolle, 50% REAKTION: patients reacting out of 10",[1]; Sildenafil Monodosis 50 mg,0/10
same,"Kontrolle, MAXIMALE EREKTION: patients reacting out of 10",[1]; Sildenafil Monodosis 50 mg,0/10
same,"Kontrolle, 1. REAKTION (INITIALPHASE): patients reacting out of 10",[1]; Sildenafil Monodosis 100 mg,1/10 and 0/10
same,"Kontrolle, 50% REAKTION: patients reacting out of 10",[1]; Sildenafil Monodosis 100 mg,1/10 and 0/10
same,"Kontrolle, MAXIMALE EREKTION: patients reacting out of 10",[1]; Sildenafil Monodosis 100 mg,0/10
same,"Kontrolle, 50% REAKTION: time",[1]; [3],105 min
same,"Kontrolle, MAXIMALE EREKTION: time",[1]; [3],120 min
same,Druckwerte im Bereich des Sphincter internus sowie des Sphincter externus,[2],keine vergleichbaren hohen Druckwerte
